Reference: ChEMBL document CHEMBL1144388, “Carbonic anhydrase inhibitors: synthesis and inhibition of cytosolic/tumor-associated carbonic anhydrase isozymes I, II, and IX with sulfonamides incorporating thioureido-sulfanilyl scaffolds” (Bioorg Med Chem Lett, 2005)

Key:
Carbonic anhydrase 2 = Carbonic anhydrase 2 (Homo sapiens, UniProt P00918)
Description: Inhibitory constant against human Carbonic anhydrase II

Carbonic anhydrase 9 = Carbonic anhydrase 9 (Homo sapiens, UniProt Q16790)
Description: Inhibitory constant against human Carbonic anhydrase IX

[1] = molecular target: Carbonic anhydrases; II & IX (Homo sapiens, UniProt P00918+Q16790)
Description: Ratio against Carbonic anhydrase II to Carbonic anhydrase IX

Carbonic anhydrase 1 = Carbonic anhydrase 1 (Homo sapiens, UniProt P00915)
Chain of Carbonic anhydrase 1 (P00915 whole entry): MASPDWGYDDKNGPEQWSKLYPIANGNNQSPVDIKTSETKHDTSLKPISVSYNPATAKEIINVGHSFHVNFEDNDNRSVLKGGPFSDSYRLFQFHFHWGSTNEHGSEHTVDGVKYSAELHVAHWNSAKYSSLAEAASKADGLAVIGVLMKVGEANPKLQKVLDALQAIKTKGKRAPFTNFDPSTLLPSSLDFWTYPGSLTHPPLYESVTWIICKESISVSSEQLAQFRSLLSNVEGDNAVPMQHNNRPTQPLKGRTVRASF
Description: Inhibitory constant against human Carbonic anhydrase I

Structure (SMILES): CN(C)CC/N=C(\S)Nc1ccc(S(=O)(=O)NCc2ccc(S(N)(=O)=O)cc2)cc1
- Ki (Carbonic anhydrase 2): 12 nM
- Ki (Carbonic anhydrase 9): 5.4 nM
- Ki [1]: 2.22 Ratio
- Ki (Carbonic anhydrase 1): 210 nM

Structure (SMILES): NS(=O)(=O)c1ccc(NS(=O)(=O)c2ccc(N/C(S)=N/N3CCOCC3)cc2)cc1
- Ki (Carbonic anhydrase 2): 290 nM
- Ki (Carbonic anhydrase 1): 233 nM

Structure (SMILES): CN1CCN(CC/N=C(\S)Nc2ccc(S(=O)(=O)NCc3ccc(S(N)(=O)=O)cc3)cc2)CC1
- Ki (Carbonic anhydrase 2): 10.3 nM
- Ki (Carbonic anhydrase 9): 5 nM
- Ki [1]: 2.06 Ratio
- Ki (Carbonic anhydrase 1): 246 nM

Structure (SMILES): CN1CCN(CC/N=C(\S)Nc2ccc(S(=O)(=O)Nc3ccc(S(N)(=O)=O)cc3)cc2)CC1
- Ki (Carbonic anhydrase 2): 7.2 nM
- Ki (Carbonic anhydrase 9): 4.8 nM
- Ki [1]: 1.5 Ratio
- Ki (Carbonic anhydrase 1): 175 nM

Structure (SMILES): NS(=O)(=O)c1ccc(CNS(=O)(=O)c2ccc(N/C(S)=N/CCN3CCOCC3)cc2)cc1
- Ki (Carbonic anhydrase 2): 220 nM
- Ki (Carbonic anhydrase 9): 4.8 nM
- Ki [1]: 45.83 Ratio
- Ki (Carbonic anhydrase 1): 3.1 nM

Structure (SMILES): NS(=O)(=O)c1ccc(CNS(=O)(=O)c2ccc(NC(=S)NN3CCOCC3)cc2)cc1
- Ki (Carbonic anhydrase 2): 278 nM
- Ki (Carbonic anhydrase 1): 268 nM

Structure (SMILES): NS(=O)(=O)c1ccc(CC/N=C(\S)Nc2ccc(S(=O)(=O)NCc3ccc(S(N)(=O)=O)cc3)cc2)cc1
- Ki (Carbonic anhydrase 2): 46 nM
- Ki (Carbonic anhydrase 9): 4.6 nM
- Ki [1]: 10 Ratio
- Ki (Carbonic anhydrase 1): 3.7 nM

Structure (SMILES): CN(C)CC/N=C(\S)Nc1ccc(S(=O)(=O)NCCc2ccc(S(N)(=O)=O)cc2)cc1
- Ki (Carbonic anhydrase 2): 10.1 nM
- Ki (Carbonic anhydrase 9): 6.1 nM
- Ki [1]: 1.65 Ratio
- Ki (Carbonic anhydrase 1): 308 nM

Structure (SMILES): NS(=O)(=O)c1ccc(CNS(=O)(=O)c2ccc(NC(=S)NCc3ccccn3)cc2)cc1
- Ki (Carbonic anhydrase 2): 290 nM
- Ki (Carbonic anhydrase 1): 355 nM

Structure (SMILES): NS(=O)(=O)c1ccc(NS(=O)(=O)c2ccc(N/C(S)=N/CCN3CCOCC3)cc2)cc1
- Ki (Carbonic anhydrase 2): 180 nM
- Ki (Carbonic anhydrase 9): 5.6 nM
- Ki [1]: 32.14 Ratio
- Ki (Carbonic anhydrase 1): 9.5 nM

Structure (SMILES): CN(C)CC/N=C(\S)Nc1ccc(S(=O)(=O)Nc2ccc(S(N)(=O)=O)cc2)cc1
- Ki (Carbonic anhydrase 2): 8.1 nM
- Ki (Carbonic anhydrase 9): 6.7 nM
- Ki [1]: 1.2 Ratio
- Ki (Carbonic anhydrase 1): 105 nM

Structure (SMILES): NS(=O)(=O)c1ccc(CNS(=O)(=O)c2ccc(NC(=S)NCCc3ccccc3)cc2)cc1
- Ki (Carbonic anhydrase 2): 640 nM
- Ki (Carbonic anhydrase 1): 8.6 nM
